Values after ≈ are worked out from the molar mass of the structure shown. Like-named read-outs stand apart in the source and are kept apart here.
What was measured:
[1] = biological target: T1, recombinantly expressed catalytic domain of MMP-13 (Homo sapiens, UniProt P45452); test: Enzymatic activity of recombinantly expressed MMP-13 catalytic domain, dose response of BiPS; assay type: biochemical; conditions: recombinantly expressed catalytic domain of MMP-13, after refolding
T1 construct: containing the catalytic site (amino acid residues −104 to 274); TEV cleavage site (C); 6xHis (C); made in house; host or cells: Escherichia coli BL21-DE3 pLys S
Description: To this end, a recombinantly expressed catalytic domain of MMP-13 was purified under denaturing conditions (Figure S6); the process lead to a very pure sample preparation.
(§1) Figure S5. PyMOL stick and cartoon representation of the bidentate interaction established by the hydroxamate and the catalytic Zinc ion in both MMP-13 (left) and MMP-2 (right). Hydrogen bonds are shown in dashed lines, the catalytic zinc ion is shown as grey sphere. For the sake of clarity, no hydrogens are shown.
(§2) Figure S6. SDS-PAGE analysis of the recombinantly expressed catalytic dom ain of MMP-13 purified by metal affinity chromatography. M corresponds to the molecular weight markers ( k D a ) . […]
(§3) Log(BiPS [M]) Log(BiPS [M])
(§4) Figure S7. Dose response curve used to determine IC50 of BiPS for A) recombinantly expressed catalytic domain of MMP-13, and B) commercially available MMP-13 active protein. […]

[2] = biological target: commercially available MMP-13 active protein (Homo sapiens, UniProt P45452); test: Enzymatic activity of commercial MMP-13, dose response of BiPS; assay type: biochemical
Description: as §1, §2, §3, §4

[3] = biological target: MMP-13 catalytic domain (Homo sapiens, UniProt P45452); test: WaterLOGSY NMR experiment; conditions: 5 μM protein, 0.15 mM ligand, 25 °C
[4] = Thermodynamic solubility (shake flask method); assay type: physicochemical; conditions: phosphate buffer, aqueous buffer, thermodynamic from solid; PBS pH 7.4, shake flask, room temperature; read-out: Experimental Water Solubility LogS (converted)
Method: The samples were sonicated for 10 min and shaken overnight at 800 rpm (FB15013 TopMix, Fischer Scientific, Waltham, MA, USA) at room temperature. A first phase separation of supernatant and undissolved solid was performed by centrifugation at 5000 rpm for 20 min (Biofuge primo R). The supernatant was then transferred into Eppendorf tubes for a second centrifugation. An adequate dilution was made using the particle-free supernatant and the concentration quantified by LC-HRMS using a 4-point calibration curve (Agilent 1260 Infinity II).
PART A. Calibration curves of compounds for solubility
9e, 10a-e), 4-points calibration curves were made for each compound. Calibrations curves were obtained using four different concentrations of the corresponding compound (0.1 mg/mL, 0.01 mg/mL, 0.001 mg/mL and 0.0001 mg/mL). All samples were prepared in DMSO and measured in a LC-HRMS (Agilent 1260 Infinity II).
Figure S1. Calibration curves of all active compounds (solubility studies) (1, 2, 9a, 9e, 10a-e) […]

[5] = biological target: T2, MMP-2 (Homo sapiens, UniProt P08253); design: method as in PMID 30629065; conditions: previous work; read-out: MMP-2 IC50; cited from earlier work
T2 construct: the catalytic domains of the corresponding MMP were incubated in triplicate; purchased Enzo Life Science International, Inc

[6] = biological target: T2, MMP-2; test: MMP inhibition assay (MMP Inhibitor Profiling Kit, thiopeptide substrate), MMP-2; assay type: biochemical; conditions: catalytic domain, 37 °C, pH 7.5
Method: (§5) MMP activity measurements were performed using an MMP Inhibitor Profiling Kit purchased from Enzo Life Science International, Inc. (Farmingdale, NY, USA), and following the manufacturer’s protocol with slight modifications. Proteolytic activity was measured using a thiopeptide substrate (Ac-PLG-[2-mercapto-4-methylpentanoyl]-LG-OC2H5) where the MMP cleavage site peptide bond has been replaced by a thioester bond. Hydrolysis of this bond by MMPs produces a sulfhydryl group that reacts with DTNB to form 2-nitro-5-thiobenzoic acid, which was detected by its absorbance at 414 nm (microplate photometer 90 Thermo Scientific Multiscan FC).
(§6) Enzyme reactions were carried out at 37 °C in a 100 μL final volume of solutions, where the catalytic domains of the corresponding MMP were incubated in triplicate with at least seven concentrations of inhibitors. The assay buffer contained the following components: 50 mM HEPES, 10 mM CaCl2 95, 0.05% Brij-35, and 1 mM DTNB at pH 7.5. After addition of the substrate, the increase of absorbance was recorded in 1 min time intervals for 30 min. Data were plotted as OD versus time for each sample to obtain the reaction velocity (V) in OD per min. The percentage of residual activity for each compound was calculated using the following formula: % of remaining activity = (V in the presence of inhibitor/Vcontrol) × 100. An inhibitor, NNGH, was included as a prototypic control inhibitor. IC50 calculations in MMP-13 and MMP-2 for active compounds are shown in Supplementary Materials (Figure S9)
The concentration of the compound that provided 50% inhibition of enzymatic activity (IC50) was determined by using semi-logarithmic dose–response plots (Graph Pad Prism 5.0 for Windows, Graph Pad Software Inc., San Diego, CA, USA, 2007).

[7] = biological target: T3, MMP-14 (Homo sapiens, UniProt P50281); test: MMP inhibition assay (MMP Inhibitor Profiling Kit, thiopeptide substrate), MMP-14; assay type: biochemical; conditions: panel of MMPs
T3 construct: the catalytic domains of the corresponding MMP were incubated in triplicate; purchased Enzo Life Science International, Inc
Method: as §5
as §6, with “An inhibitor, NNGH, was included as a prototypic control inhibitor. IC50 calculations in MMP-13 and MMP-2 for active compounds are shown in Supplementary Materials (Figure S9)” left out

[8] = biological target: T4, MMP-9 (Homo sapiens, UniProt P14780); test: MMP inhibition assay (MMP Inhibitor Profiling Kit, thiopeptide substrate), MMP-9; assay type: biochemical; conditions: panel of MMPs
T4 construct: the catalytic domains of the corresponding MMP were incubated in triplicate; purchased Enzo Life Science International, Inc
Method: as §5
as §6, with “An inhibitor, NNGH, was included as a prototypic control inhibitor. IC50 calculations in MMP-13 and MMP-2 for active compounds are shown in Supplementary Materials (Figure S9)” left out

[9] = biological target: T5, MMP-3 (Homo sapiens, UniProt P08254); test: MMP inhibition assay (MMP Inhibitor Profiling Kit, thiopeptide substrate), MMP-3; assay type: biochemical; conditions: panel of MMPs
T5 construct: the catalytic domains of the corresponding MMP were incubated in triplicate; purchased Enzo Life Science International, Inc
Method: as §5
as §6, with “An inhibitor, NNGH, was included as a prototypic control inhibitor. IC50 calculations in MMP-13 and MMP-2 for active compounds are shown in Supplementary Materials (Figure S9)” left out

[10] = biological target: T6, MMP-12 (Homo sapiens, UniProt P39900); test: MMP inhibition assay (MMP Inhibitor Profiling Kit, thiopeptide substrate), MMP-12; assay type: biochemical; conditions: panel of MMPs
T6 construct: the catalytic domains of the corresponding MMP were incubated in triplicate; purchased Enzo Life Science International, Inc
Method: as §5
as §6, with “An inhibitor, NNGH, was included as a prototypic control inhibitor. IC50 calculations in MMP-13 and MMP-2 for active compounds are shown in Supplementary Materials (Figure S9)” left out

[11] = biological target: T7, MMP-1 (Homo sapiens, UniProt P03956); test: MMP inhibition assay (MMP Inhibitor Profiling Kit, thiopeptide substrate), MMP-1; assay type: biochemical; conditions: panel of MMPs
T7 construct: the catalytic domains of the corresponding MMP were incubated in triplicate; purchased Enzo Life Science International, Inc
T7 sequence (P03956 100-269 limits assumed): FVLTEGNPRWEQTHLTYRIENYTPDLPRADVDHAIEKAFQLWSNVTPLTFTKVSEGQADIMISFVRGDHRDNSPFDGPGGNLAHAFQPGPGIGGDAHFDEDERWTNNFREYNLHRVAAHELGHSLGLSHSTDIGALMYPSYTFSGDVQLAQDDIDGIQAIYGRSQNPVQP
Method: as §5
as §6, with “An inhibitor, NNGH, was included as a prototypic control inhibitor. IC50 calculations in MMP-13 and MMP-2 for active compounds are shown in Supplementary Materials (Figure S9)” left out

[12] = biological target: T8, MMP-10 (Homo sapiens, UniProt P09238); test: MMP inhibition assay (MMP Inhibitor Profiling Kit, thiopeptide substrate), MMP-10; assay type: biochemical; conditions: panel of MMPs
T8 construct: the catalytic domains of the corresponding MMP were incubated in triplicate; purchased Enzo Life Science International, Inc
Method: as §5
as §6, with “An inhibitor, NNGH, was included as a prototypic control inhibitor. IC50 calculations in MMP-13 and MMP-2 for active compounds are shown in Supplementary Materials (Figure S9)” left out

[13] = biological target: T9, MMP-7 (Homo sapiens, UniProt P09237); test: MMP inhibition assay (MMP Inhibitor Profiling Kit, thiopeptide substrate), MMP-7; assay type: biochemical; conditions: panel of MMPs
T9 construct: the catalytic domains of the corresponding MMP were incubated in triplicate; purchased Enzo Life Science International, Inc
T9 sequence (P09237 95-267): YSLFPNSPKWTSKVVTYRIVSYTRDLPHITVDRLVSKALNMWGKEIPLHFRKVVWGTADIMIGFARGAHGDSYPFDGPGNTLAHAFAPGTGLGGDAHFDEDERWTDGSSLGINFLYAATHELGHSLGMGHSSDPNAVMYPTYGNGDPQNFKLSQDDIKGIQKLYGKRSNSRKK
Method: as §5
as §6, with “An inhibitor, NNGH, was included as a prototypic control inhibitor. IC50 calculations in MMP-13 and MMP-2 for active compounds are shown in Supplementary Materials (Figure S9)” left out

[14] = biological target: T10, MMP-8 (Homo sapiens, UniProt P22894); test: MMP inhibition assay (MMP Inhibitor Profiling Kit, thiopeptide substrate), MMP-8; assay type: biochemical; conditions: panel of MMPs
T10 construct: the catalytic domains of the corresponding MMP were incubated in triplicate; purchased Enzo Life Science International, Inc
Method: as §5
as §6, with “An inhibitor, NNGH, was included as a prototypic control inhibitor. IC50 calculations in MMP-13 and MMP-2 for active compounds are shown in Supplementary Materials (Figure S9)” left out

[15] = biological target: T11, MMP-13 (Homo sapiens, UniProt P45452); test: MMP inhibition assay (MMP Inhibitor Profiling Kit, thiopeptide substrate), MMP-13; assay type: biochemical; conditions: catalytic domain, 37 °C, pH 7.5
T11 construct: the catalytic domains of the corresponding MMP were incubated in triplicate; purchased Enzo Life Science International, Inc
Method: as §5, with “Proteolytic activity was measured using a thiopeptide substrate (Ac-PLG-[2-mercapto-4-methylpentanoyl]-LG-OC2H5) where the MMP cleavage site peptide bond has been replaced by a thioester bond.” left out
The assay buffer contained the following components: 50 mM HEPES, 10 mM CaCl2 95, 0.05% Brij-35, and 1 mM DTNB at pH 7.5. After addition of the substrate, the increase of absorbance was recorded in 1 min time intervals for 30 min. Data were plotted as OD versus time for each sample to obtain the reaction velocity (V) in OD per min. The percentage of residual activity for each compound was calculated using the following formula: % of remaining activity = (V in the presence of inhibitor/Vcontrol) × 100. An inhibitor, NNGH, was included as a prototypic control inhibitor.

T2 sequence (P08253 110-446 limits assumed): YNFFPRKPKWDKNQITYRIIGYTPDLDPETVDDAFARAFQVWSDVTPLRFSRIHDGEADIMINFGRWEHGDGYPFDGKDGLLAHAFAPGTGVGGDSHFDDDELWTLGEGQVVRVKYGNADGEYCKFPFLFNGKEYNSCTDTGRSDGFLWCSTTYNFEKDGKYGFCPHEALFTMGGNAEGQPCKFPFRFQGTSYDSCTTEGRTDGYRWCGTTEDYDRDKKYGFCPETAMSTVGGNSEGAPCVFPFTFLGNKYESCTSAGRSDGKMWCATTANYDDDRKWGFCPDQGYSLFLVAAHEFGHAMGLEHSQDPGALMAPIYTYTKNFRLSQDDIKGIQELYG
T5 sequence (P08254 100-272 limits assumed): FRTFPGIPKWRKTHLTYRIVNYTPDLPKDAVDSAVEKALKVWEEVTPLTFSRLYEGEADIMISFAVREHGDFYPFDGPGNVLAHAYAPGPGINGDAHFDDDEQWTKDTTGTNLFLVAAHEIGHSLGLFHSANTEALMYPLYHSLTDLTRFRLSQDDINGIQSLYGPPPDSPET
T10 sequence (P22894 100-262 limits assumed): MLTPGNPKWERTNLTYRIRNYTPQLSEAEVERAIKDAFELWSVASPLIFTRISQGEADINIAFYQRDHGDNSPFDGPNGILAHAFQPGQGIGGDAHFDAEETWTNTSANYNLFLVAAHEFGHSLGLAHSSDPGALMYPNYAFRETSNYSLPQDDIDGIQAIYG
T8 sequence (P09238 99-263 limits assumed): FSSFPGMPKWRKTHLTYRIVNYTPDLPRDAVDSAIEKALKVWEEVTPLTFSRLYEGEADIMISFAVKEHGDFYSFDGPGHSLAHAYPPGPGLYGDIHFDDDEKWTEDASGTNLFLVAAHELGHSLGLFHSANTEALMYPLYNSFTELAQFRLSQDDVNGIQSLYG
T4 sequence (P14780 107-444 limits assumed): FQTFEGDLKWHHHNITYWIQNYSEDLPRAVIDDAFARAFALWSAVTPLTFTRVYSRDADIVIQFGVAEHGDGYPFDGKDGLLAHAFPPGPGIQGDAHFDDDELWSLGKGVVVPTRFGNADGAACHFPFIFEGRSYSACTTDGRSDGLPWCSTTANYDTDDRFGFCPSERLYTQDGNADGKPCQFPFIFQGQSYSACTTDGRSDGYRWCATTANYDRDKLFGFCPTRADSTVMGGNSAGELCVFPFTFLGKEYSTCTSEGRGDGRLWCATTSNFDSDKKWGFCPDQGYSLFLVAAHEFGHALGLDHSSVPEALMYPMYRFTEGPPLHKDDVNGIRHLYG
T6 sequence (P39900 106-263 limits assumed): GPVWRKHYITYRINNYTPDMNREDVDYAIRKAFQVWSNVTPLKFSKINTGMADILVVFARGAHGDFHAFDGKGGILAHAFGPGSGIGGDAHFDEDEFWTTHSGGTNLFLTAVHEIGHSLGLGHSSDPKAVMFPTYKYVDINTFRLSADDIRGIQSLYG

SMILES	solubility [4] [µM]	IC50 [6] [nM]	melting point	IC50 [15] [nM]	other results
O=C(NO)[C@@H](Cc1ccccc1)NS(=O)(=O)c1ccc(-c2ccccc2)cc1 [BiPS, (2R)-[(4-biphenylylsulfonyl)amino]-N-hydroxy-3-phenylpropionamide]					IC50 [1]: 1.44 nM; IC50 [2]: 2.06 nM; Interaction with the MMP-13 catalytic domain (WaterLOGSY) [3]: positive signals
O=C(NO)C1(S(=O)(=O)c2ccc(-n3cc(CCn4nc5c(Br)c(Br)c(Br)c(Br)c5n4)nn3)cc2)CCOCC1 [Compound 2]	2.4 (≈ 1.95 µg/mL)				IC50 [5]: 100 nM
O=C(NO)[C@@H](Cc1ccccc1)NS(=O)(=O)c1ccc(-n2cc(CCn3nc4ccccc4n3)nn2)cc1 [Compound 9a]	9.77 (≈ 5.2 µg/mL)	3.42 ± 1.15			IC50 [7]: > 1000 nM; IC50 [8]: 500 ± 74 nM; IC50 [9]: 31 ± 8 nM; IC50 [10]: 3.7 ± 2 nM; IC50 [11]: > 1000 nM; IC50 [12]: 280 ± 22 nM; IC50 [13]: 47 ± 21 nM; IC50 [14]: 100 ± 19 nM
O=C(O)[C@@H](Cc1ccccc1)NS(=O)(=O)c1ccc(-n2cc(CCn3nc4ccccc4n3)nn2)cc1 [Compound 9b, (R)-2-(4-(4-(2-(2H-benzo[d][1–3]triazol-2-yl)ethyl)-1H-1,2,3-triazol-1-yl)phenylsulfonamido)-3-phenylpropanoic acid]		> 100	246 °C (dec.)	> 100	
O=C(O)[C@H](Cc1ccccc1)NS(=O)(=O)c1ccc(-n2cc(CCn3nc4ccccc4n3)nn2)cc1 [Compound 9c, (S)-2-(4-(4-(2-(2H-benzo[d][1–3]triazol-2-yl)ethyl)-1H-1,2,3-triazol-1-yl)phenylsulfonamido)-3-phenylpropanoic acid]		> 100	227 to 228 °C	> 100	
O=C(O)[C@@H](Cc1ccccc1)NS(=O)(=O)c1ccc(-n2cc(CCn3nc4c(Br)c(Br)c(Br)c(Br)c4n3)nn2)cc1 [Compound 9d, (R)-2-(4-(4-(2-(perbromo-2H-benzo[d][1–3]triazol-2-yl)ethyl)-1H-1,2,3-triazol-1-yl)phenylsulfonamido)-3-phenylpropanoic acid]		> 100	127 to 130 °C	> 100	

Source: article PMC8467962, “Design and Synthesis of Water-Soluble and Potent MMP-13 Inhibitors with Activity in Human Osteosarcoma Cells” (International Journal of Molecular Sciences, 2021)
